Results reported in ChEMBL document CHEMBL1909046, “DrugMatrix in vitro pharmacology data”.

Target: Mitogen-activated protein kinase 3 (Homo sapiens, UniProt P27361)
Assay: DRUGMATRIX: Protein Serine/Threonine Kinase, ERK1 enzyme inhibition (substrate: Myelin Basic Protein)
Parameters: species or system Escherichia coli
Details: Not Active = under 50% inhibition at 10 µM

Mitogen-activated protein kinase 3, sequence (P27361 whole entry): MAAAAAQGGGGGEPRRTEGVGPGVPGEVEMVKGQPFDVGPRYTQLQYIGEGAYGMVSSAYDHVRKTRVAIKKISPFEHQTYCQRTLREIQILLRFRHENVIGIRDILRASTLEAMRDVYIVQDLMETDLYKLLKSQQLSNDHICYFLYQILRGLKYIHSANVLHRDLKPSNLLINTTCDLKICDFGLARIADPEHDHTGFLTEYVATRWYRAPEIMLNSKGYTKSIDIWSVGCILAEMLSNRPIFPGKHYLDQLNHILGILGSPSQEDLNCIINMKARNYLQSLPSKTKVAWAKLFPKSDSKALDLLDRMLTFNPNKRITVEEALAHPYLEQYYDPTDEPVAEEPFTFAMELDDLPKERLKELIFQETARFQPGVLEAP

SMILES | IC50
Cc1cc(NS(=O)(=O)c2ccc(N)cc2)no1 [SULFAMETHOXAZOLE] | Not Active
CN[C@@H]1[C@@H](O)[C@@H](O[C@@H]2[C@@H](O)[C@H](O[C@H]3OC(CN)=CC[C@H]3N)[C@@H](N)C[C@H]2N)OC[C@]1(C)O [SISOMICIN] | Not Active
O=C1c2c(O)ccc(O)c2C(=O)c2c(NCCNCCO)ccc(NCCNCCO)c21 [MITOXANTRONE] | Not Active

Target: T1, C-X-C chemokine receptor type 1 (Homo sapiens, UniProt P25024); note: in other assays of this panel Not Active means under 50% inhibition at 10 µM
T1 sequence (P25024 whole entry): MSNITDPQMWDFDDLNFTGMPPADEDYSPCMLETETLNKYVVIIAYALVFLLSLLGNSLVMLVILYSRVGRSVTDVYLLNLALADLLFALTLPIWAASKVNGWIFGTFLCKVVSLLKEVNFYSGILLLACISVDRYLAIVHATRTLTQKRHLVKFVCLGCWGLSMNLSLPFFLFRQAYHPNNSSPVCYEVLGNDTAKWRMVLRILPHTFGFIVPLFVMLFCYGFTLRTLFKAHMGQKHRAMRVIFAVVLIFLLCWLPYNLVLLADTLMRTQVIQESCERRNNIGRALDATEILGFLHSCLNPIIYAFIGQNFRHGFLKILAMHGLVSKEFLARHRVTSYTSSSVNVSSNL
Details: not given

SMILES | IC50
Cc1cc(NS(=O)(=O)c2ccc(N)cc2)no1 [SULFAMETHOXAZOLE] | Not Active
CN[C@@H]1[C@@H](O)[C@@H](O[C@@H]2[C@@H](O)[C@H](O[C@H]3OC(CN)=CC[C@H]3N)[C@@H](N)C[C@H]2N)OC[C@]1(C)O [SISOMICIN] | Not Active
O=C1c2c(O)ccc(O)c2C(=O)c2c(NCCNCCO)ccc(NCCNCCO)c21 [MITOXANTRONE] | Not Active

Tested on: not listed separately
Assay: DRUGMATRIX: Platelet-Derived Growth Factor (PDGF) radioligand binding (ligand: [125I] PDGF)
Type: cell-based
Details: nih3t3; Not Active = under 50% inhibition at 10 µM

SMILES | IC50 | Ki
Cc1cc(NS(=O)(=O)c2ccc(N)cc2)no1 [SULFAMETHOXAZOLE] | Not Active | Not Active
CN[C@@H]1[C@@H](O)[C@@H](O[C@@H]2[C@@H](O)[C@H](O[C@H]3OC(CN)=CC[C@H]3N)[C@@H](N)C[C@H]2N)OC[C@]1(C)O [SISOMICIN] | Not Active | Not Active
O=C1c2c(O)ccc(O)c2C(=O)c2c(NCCNCCO)ccc(NCCNCCO)c21 [MITOXANTRONE] | Not Active | Not Active

Tested on: not listed separately
Assay: DRUGMATRIX: GABAA, Chloride Channel, TBOB radioligand binding (ligand: [3H] TBOB)
Type: cell membranes, Rattus norvegicus, Wistar, Cerebral cortex, Membrane
Details: Not Active = under 50% inhibition at 10 µM

SMILES | IC50 | Ki
Cc1cc(NS(=O)(=O)c2ccc(N)cc2)no1 [SULFAMETHOXAZOLE] | Not Active | Not Active
CN[C@@H]1[C@@H](O)[C@@H](O[C@@H]2[C@@H](O)[C@H](O[C@H]3OC(CN)=CC[C@H]3N)[C@@H](N)C[C@H]2N)OC[C@]1(C)O [SISOMICIN] | Not Active | Not Active
O=C1c2c(O)ccc(O)c2C(=O)c2c(NCCNCCO)ccc(NCCNCCO)c21 [MITOXANTRONE] | Not Active | Not Active

Target: T2, B2 bradykinin receptor (Homo sapiens, UniProt P30411); note: in other assays of this panel Not Active means under 50% inhibition at 10 µM
T2 sequence (P30411 whole entry): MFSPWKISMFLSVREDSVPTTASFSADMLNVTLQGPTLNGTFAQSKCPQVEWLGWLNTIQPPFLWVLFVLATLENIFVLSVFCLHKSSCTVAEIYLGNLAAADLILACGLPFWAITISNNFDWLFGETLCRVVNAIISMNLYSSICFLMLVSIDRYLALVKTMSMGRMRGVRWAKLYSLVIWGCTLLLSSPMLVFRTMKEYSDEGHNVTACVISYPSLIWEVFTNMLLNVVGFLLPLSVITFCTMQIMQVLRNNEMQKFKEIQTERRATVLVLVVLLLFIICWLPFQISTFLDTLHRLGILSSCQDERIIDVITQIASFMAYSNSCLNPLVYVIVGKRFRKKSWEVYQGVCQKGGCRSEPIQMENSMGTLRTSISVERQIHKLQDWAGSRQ
Type: cell membranes, Membrane
Details: chem-1

SMILES | IC50
Cc1cc(NS(=O)(=O)c2ccc(N)cc2)no1 [SULFAMETHOXAZOLE] | Not Active
CN[C@@H]1[C@@H](O)[C@@H](O[C@@H]2[C@@H](O)[C@H](O[C@H]3OC(CN)=CC[C@H]3N)[C@@H](N)C[C@H]2N)OC[C@]1(C)O [SISOMICIN] | Not Active
O=C1c2c(O)ccc(O)c2C(=O)c2c(NCCNCCO)ccc(NCCNCCO)c21 [MITOXANTRONE] | Not Active

Target: T3, Alpha-2C adrenergic receptor (Homo sapiens, UniProt P18825)
T3 sequence (P18825 whole entry): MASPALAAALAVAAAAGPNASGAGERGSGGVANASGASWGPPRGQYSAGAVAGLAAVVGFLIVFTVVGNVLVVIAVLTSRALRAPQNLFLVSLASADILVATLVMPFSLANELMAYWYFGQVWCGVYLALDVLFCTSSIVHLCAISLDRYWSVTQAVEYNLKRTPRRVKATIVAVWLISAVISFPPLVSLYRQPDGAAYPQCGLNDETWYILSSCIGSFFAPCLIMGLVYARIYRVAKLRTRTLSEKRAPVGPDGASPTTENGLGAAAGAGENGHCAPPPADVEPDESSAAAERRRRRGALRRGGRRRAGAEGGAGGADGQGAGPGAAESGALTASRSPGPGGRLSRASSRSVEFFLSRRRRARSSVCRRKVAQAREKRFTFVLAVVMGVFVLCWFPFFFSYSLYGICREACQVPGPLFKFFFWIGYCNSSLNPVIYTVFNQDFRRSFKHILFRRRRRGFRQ
Assay: DRUGMATRIX: Adrenergic Alpha-2C radioligand binding (ligand: [3H] MK-912)
Type: cell membranes, Sf9, Membrane
Details: sf9

SMILES | IC50
Cc1cc(NS(=O)(=O)c2ccc(N)cc2)no1 [SULFAMETHOXAZOLE] | Not Active
CN[C@@H]1[C@@H](O)[C@@H](O[C@@H]2[C@@H](O)[C@H](O[C@H]3OC(CN)=CC[C@H]3N)[C@@H](N)C[C@H]2N)OC[C@]1(C)O [SISOMICIN] | Not Active
O=C1c2c(O)ccc(O)c2C(=O)c2c(NCCNCCO)ccc(NCCNCCO)c21 [MITOXANTRONE] | Not Active

Target: Cannabinoid receptor 1 (Homo sapiens, UniProt P21554); note: in other assays of this panel Not Active means under 50% inhibition at 10 µM
Type: cell membranes, Membrane
Details: chem-1

Cannabinoid receptor 1, sequence (P21554 whole entry): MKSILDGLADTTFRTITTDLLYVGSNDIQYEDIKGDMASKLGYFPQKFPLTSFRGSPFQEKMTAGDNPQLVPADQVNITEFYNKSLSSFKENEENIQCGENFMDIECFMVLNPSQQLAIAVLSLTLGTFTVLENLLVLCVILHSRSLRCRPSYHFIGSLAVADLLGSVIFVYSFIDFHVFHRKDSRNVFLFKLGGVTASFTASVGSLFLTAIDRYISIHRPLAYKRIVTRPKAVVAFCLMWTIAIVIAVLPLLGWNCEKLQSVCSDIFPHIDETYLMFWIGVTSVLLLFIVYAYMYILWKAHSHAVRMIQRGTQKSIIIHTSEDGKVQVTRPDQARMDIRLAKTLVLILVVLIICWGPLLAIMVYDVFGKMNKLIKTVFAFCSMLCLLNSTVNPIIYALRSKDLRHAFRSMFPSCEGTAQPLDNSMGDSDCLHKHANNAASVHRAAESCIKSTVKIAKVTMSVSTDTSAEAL

SMILES | IC50
Cc1cc(NS(=O)(=O)c2ccc(N)cc2)no1 [SULFAMETHOXAZOLE] | Not Active
CN[C@@H]1[C@@H](O)[C@@H](O[C@@H]2[C@@H](O)[C@H](O[C@H]3OC(CN)=CC[C@H]3N)[C@@H](N)C[C@H]2N)OC[C@]1(C)O [SISOMICIN] | Not Active
O=C1c2c(O)ccc(O)c2C(=O)c2c(NCCNCCO)ccc(NCCNCCO)c21 [MITOXANTRONE] | Not Active

Target: cGMP-specific 3',5'-cyclic phosphodiesterase (Homo sapiens, UniProt O76074)
Assay: DRUGMATRIX: Phosphodiesterase PDE5 enzyme inhibition (substrate: [3H]cGMP + cGMP)
Type: tissue-based, Platelet
Details: platelet; Not Active = under 50% inhibition at 10 µM

SMILES | IC50
Cc1cc(NS(=O)(=O)c2ccc(N)cc2)no1 [SULFAMETHOXAZOLE] | Not Active
CN[C@@H]1[C@@H](O)[C@@H](O[C@@H]2[C@@H](O)[C@H](O[C@H]3OC(CN)=CC[C@H]3N)[C@@H](N)C[C@H]2N)OC[C@]1(C)O [SISOMICIN] | Not Active
O=C1c2c(O)ccc(O)c2C(=O)c2c(NCCNCCO)ccc(NCCNCCO)c21 [MITOXANTRONE] | Not Active

Target: Nitric oxide synthase 1 (Rattus norvegicus, UniProt P29476); note: in other assays of this panel Not Active means under 50% inhibition at 10 µM
Type: tissue-based, Cerebellum
Details: not given

Nitric oxide synthase 1, sequence (P29476 whole entry): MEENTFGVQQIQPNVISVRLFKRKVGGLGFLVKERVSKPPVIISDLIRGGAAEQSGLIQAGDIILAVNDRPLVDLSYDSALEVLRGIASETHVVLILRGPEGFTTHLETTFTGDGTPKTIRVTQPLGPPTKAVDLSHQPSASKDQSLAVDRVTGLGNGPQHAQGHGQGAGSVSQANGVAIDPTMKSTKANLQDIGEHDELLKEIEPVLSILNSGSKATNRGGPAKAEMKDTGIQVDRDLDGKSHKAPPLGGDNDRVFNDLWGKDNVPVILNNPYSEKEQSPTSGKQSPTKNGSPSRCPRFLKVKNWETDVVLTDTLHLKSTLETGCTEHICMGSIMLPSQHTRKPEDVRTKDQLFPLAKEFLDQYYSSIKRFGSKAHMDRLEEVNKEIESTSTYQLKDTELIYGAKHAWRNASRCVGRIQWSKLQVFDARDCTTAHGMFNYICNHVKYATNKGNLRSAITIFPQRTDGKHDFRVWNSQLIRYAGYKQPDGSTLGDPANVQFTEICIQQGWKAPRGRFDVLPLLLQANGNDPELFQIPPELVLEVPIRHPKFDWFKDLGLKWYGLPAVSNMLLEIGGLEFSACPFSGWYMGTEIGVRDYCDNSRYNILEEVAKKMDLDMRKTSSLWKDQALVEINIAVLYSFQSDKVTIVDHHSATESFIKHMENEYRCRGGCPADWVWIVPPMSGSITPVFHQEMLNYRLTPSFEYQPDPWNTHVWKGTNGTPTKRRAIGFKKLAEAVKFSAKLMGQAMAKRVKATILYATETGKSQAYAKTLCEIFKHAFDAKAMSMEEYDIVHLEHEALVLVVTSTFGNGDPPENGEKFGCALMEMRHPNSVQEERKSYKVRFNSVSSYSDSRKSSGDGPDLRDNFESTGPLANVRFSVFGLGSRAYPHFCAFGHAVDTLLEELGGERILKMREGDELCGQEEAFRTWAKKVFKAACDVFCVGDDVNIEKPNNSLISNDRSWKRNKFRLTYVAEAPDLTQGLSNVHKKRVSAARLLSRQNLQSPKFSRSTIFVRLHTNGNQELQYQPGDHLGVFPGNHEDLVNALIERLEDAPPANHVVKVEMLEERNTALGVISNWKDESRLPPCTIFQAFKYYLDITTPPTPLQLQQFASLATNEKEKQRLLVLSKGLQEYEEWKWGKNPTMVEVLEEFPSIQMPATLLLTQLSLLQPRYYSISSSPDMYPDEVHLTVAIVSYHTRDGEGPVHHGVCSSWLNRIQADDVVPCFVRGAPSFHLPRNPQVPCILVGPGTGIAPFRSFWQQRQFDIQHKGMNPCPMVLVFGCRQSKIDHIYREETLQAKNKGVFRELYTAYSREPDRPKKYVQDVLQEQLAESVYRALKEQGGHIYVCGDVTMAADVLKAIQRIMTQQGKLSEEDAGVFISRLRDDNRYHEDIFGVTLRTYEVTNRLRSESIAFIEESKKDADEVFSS

SMILES | IC50
Cc1cc(NS(=O)(=O)c2ccc(N)cc2)no1 [SULFAMETHOXAZOLE] | Not Active
CN[C@@H]1[C@@H](O)[C@@H](O[C@@H]2[C@@H](O)[C@H](O[C@H]3OC(CN)=CC[C@H]3N)[C@@H](N)C[C@H]2N)OC[C@]1(C)O [SISOMICIN] | Not Active
O=C1c2c(O)ccc(O)c2C(=O)c2c(NCCNCCO)ccc(NCCNCCO)c21 [MITOXANTRONE] | Not Active

Tested on: not listed separately
Assay: DRUGMATRIX: Potassium Channel [KATP] radioligand binding (ligand: [3H] Glyburide)
Type: cell membranes, Membrane
Details: hit-t15; Not Active = under 50% inhibition at 10 µM

SMILES | IC50 | Ki
Cc1cc(NS(=O)(=O)c2ccc(N)cc2)no1 [SULFAMETHOXAZOLE] | Not Active | Not Active
CN[C@@H]1[C@@H](O)[C@@H](O[C@@H]2[C@@H](O)[C@H](O[C@H]3OC(CN)=CC[C@H]3N)[C@@H](N)C[C@H]2N)OC[C@]1(C)O [SISOMICIN] | Not Active | Not Active
O=C1c2c(O)ccc(O)c2C(=O)c2c(NCCNCCO)ccc(NCCNCCO)c21 [MITOXANTRONE] | Not Active | Not Active

Target: Acetylcholinesterase (Homo sapiens, UniProt P22303)
Assay: DRUGMATRIX: Acetylcholinesterase enzyme inhibition (substrate: acetylthiocholine)
Type: cell-based, HEK293
Details: hek293; Not Active = under 50% inhibition at 10 µM

Acetylcholinesterase, sequence (P22303 whole entry): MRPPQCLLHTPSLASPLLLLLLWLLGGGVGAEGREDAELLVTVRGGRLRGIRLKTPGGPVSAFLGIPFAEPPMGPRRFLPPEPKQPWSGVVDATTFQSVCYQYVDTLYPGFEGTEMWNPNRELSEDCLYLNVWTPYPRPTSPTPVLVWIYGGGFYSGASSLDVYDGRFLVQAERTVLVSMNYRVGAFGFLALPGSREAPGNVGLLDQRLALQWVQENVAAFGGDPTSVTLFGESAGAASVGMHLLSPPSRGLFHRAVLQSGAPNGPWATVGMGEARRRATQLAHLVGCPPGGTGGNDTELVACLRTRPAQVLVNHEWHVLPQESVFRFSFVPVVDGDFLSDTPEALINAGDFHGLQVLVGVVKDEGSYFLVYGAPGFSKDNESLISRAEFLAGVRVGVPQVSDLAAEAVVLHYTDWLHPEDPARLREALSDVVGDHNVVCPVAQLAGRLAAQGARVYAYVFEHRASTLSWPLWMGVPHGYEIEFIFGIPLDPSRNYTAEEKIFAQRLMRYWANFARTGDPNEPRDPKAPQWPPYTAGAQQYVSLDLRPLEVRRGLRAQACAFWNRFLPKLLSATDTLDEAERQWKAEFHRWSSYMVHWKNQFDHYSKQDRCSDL

SMILES | IC50
Cc1cc(NS(=O)(=O)c2ccc(N)cc2)no1 [SULFAMETHOXAZOLE] | Not Active
CN[C@@H]1[C@@H](O)[C@@H](O[C@@H]2[C@@H](O)[C@H](O[C@H]3OC(CN)=CC[C@H]3N)[C@@H](N)C[C@H]2N)OC[C@]1(C)O [SISOMICIN] | Not Active
O=C1c2c(O)ccc(O)c2C(=O)c2c(NCCNCCO)ccc(NCCNCCO)c21 [MITOXANTRONE] | Not Active

Target: T4, Substance-K receptor (Homo sapiens, UniProt P21452); note: in other assays of this panel Not Active means under 50% inhibition at 10 µM
T4 sequence (P21452 whole entry): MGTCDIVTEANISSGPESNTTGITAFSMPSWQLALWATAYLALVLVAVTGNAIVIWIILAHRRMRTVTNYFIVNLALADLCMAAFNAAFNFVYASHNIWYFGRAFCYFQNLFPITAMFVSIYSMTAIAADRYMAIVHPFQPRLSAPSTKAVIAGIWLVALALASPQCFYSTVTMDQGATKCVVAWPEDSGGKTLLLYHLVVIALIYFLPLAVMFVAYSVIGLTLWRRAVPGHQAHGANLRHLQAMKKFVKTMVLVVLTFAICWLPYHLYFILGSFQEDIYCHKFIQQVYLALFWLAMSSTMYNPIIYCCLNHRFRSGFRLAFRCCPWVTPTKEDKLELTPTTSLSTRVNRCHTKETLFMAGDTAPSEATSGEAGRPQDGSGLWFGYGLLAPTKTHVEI
Type: cell membranes, CHO, Membrane
Details: cho

SMILES | IC50
Cc1cc(NS(=O)(=O)c2ccc(N)cc2)no1 [SULFAMETHOXAZOLE] | Not Active
CN[C@@H]1[C@@H](O)[C@@H](O[C@@H]2[C@@H](O)[C@H](O[C@H]3OC(CN)=CC[C@H]3N)[C@@H](N)C[C@H]2N)OC[C@]1(C)O [SISOMICIN] | Not Active
O=C1c2c(O)ccc(O)c2C(=O)c2c(NCCNCCO)ccc(NCCNCCO)c21 [MITOXANTRONE] | Not Active

Target: Adenosine receptor A2a (Homo sapiens, UniProt P29274)
Assay: DRUGMATRIX: Adenosine A2A radioligand binding (ligand: […])
Type: cell membranes, HEK293, Membrane
Details: hek293; Not Active = under 50% inhibition at 10 µM

Adenosine receptor A2a, sequence (P29274 whole entry): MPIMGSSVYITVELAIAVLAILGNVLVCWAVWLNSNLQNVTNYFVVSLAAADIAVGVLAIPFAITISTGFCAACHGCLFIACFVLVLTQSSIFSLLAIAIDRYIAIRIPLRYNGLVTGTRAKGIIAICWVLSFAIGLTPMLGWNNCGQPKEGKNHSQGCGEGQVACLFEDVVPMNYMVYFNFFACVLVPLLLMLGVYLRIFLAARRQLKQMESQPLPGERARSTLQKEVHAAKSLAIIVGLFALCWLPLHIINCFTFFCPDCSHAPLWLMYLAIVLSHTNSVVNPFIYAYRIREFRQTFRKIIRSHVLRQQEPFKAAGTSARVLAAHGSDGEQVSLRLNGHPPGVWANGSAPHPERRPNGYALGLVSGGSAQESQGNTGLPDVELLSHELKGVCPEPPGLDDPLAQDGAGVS

SMILES | IC50
Cc1cc(NS(=O)(=O)c2ccc(N)cc2)no1 [SULFAMETHOXAZOLE] | Not Active
CN[C@@H]1[C@@H](O)[C@@H](O[C@@H]2[C@@H](O)[C@H](O[C@H]3OC(CN)=CC[C@H]3N)[C@@H](N)C[C@H]2N)OC[C@]1(C)O [SISOMICIN] | Not Active
O=C1c2c(O)ccc(O)c2C(=O)c2c(NCCNCCO)ccc(NCCNCCO)c21 [MITOXANTRONE] | Not Active

Target: Protein phosphatase 3 catalytic subunit alpha (Homo sapiens, UniProt Q08209)
Parameters: species or system Escherichia coli
Details: not given

SMILES | IC50
Cc1cc(NS(=O)(=O)c2ccc(N)cc2)no1 [SULFAMETHOXAZOLE] | Not Active
CN[C@@H]1[C@@H](O)[C@@H](O[C@@H]2[C@@H](O)[C@H](O[C@H]3OC(CN)=CC[C@H]3N)[C@@H](N)C[C@H]2N)OC[C@]1(C)O [SISOMICIN] | Not Active
O=C1c2c(O)ccc(O)c2C(=O)c2c(NCCNCCO)ccc(NCCNCCO)c21 [MITOXANTRONE] | Not Active
